Data reported in PubChem BioAssay AID1963852 (Molecular Pharmacology Branch, DTP, NCI, 2024).

System: 282377-053-R-J1-PDC complex spheroid viability
Assay: Anticancer human tumor 282377-053-R-J1-PDC patient-derived colon adenocarcinoma cell line growth inhibition [POLQ]
Conditions: for IC50: curve of first compound; for viability, T/C: stronger effect = lower value
Protocol: Multicellular complex tumor spheroid response to Polymerase (POL) inhibitors (novobiocin, ART-558, RP6685) in combination with a variety of drugs and investigational agents in selected tumor cell lines
The POL inhibitors (novobiocin, ART-558, and RP6685) were evaluated both individually and in combination with standard of care and investigational anticancer small molecules within a complex spheroid model of solid tumors. . Complex spheroids include a stromal component modeled by human endothelial cells (HUVEC) and fibroblasts modeled by human mesenchymal stem cells (MSCs). The concentration ranges selected for each drug and investigational agent were based upon clinically achievable concentrations if the clinical Cmax of the agent was known.
Compounds. The drugs and investigational agents: novobiocin (NSC847541), ART-558 (NSC835418), RP-6685 (NSC848927), peposertib (NSC802822), ceralasertib (NSC780249), elimusertib (NSC800525), camonsertib (NSC841442), AZD-1390 (NSC803789), olaparib (NSC753686), talazoparib (NSC767125), rucaparib (NSC756644), sotorasib (NSC818433), MRTX-1133 (NSC836407), SN-38 (NSC673596), topotecan (NSC609699), epotoside (NSC141540), doxorubicin (NSC123127), gemcitabine (NSC613327), 5-fluorouracil (NSC19893), paclitaxel (NSC125973), vemurafenib (NSC761431), MSA-2 (NSC828583), SN-011 (NSC837082), adavosertib (NSC754352), prexasertib (NSC758257), carboplatin (NSC241240) and oxaliplatin (NSC266046), were obtained from the National Cancer Institute (NCI) Developmental Therapeutics Program Chemical Repository (21). The FDA-approved anticancer drug set is available from the Developmental Therapeutics Program at https://dtp.cancer.gov/organization/dscb/obtaining/. […] The stock solutions were prepared in dimethyl sulfoxide (DMSO, Sigma-Aldrich, St. Louis, MO, cat. D2650), except for the platinum compounds which were prepared in saline (Quality Biological, Gaithersburg, MD, cat. 114-055-101), at 800-fold the tested concentration and stored at -70 degrees C prior to their use. All drugs and investigational agents were tested over a range starting from a high concentration at or near the clinical Cmax and decreasing in half-log increments. If the clinical Cmax for an agent had not been determined, the highest concentration tested was 10 microM, except for SN-38, which was tested at a high concentration of 1 microM.
Cell Culture. All cells were maintained in an incubator at 37 degrees C and 5% CO2 with 95% humidity. The PDC lines were cultured according to standard operating procedures established by the NCI PDMR (https://pdmr.cancer.gov). Table 3 of the manuscript, lists the cell lines along with the number of the three cell types plated to form the mct-spheroids and media for tumor cell growth. After thawing, all PDC lines, except 997537-175-T-J1-PDC and 415267-285-R-J2-PDC, were cultured in Matrigel-coated flasks prepared with a working solution of 1X Ham's F-12 nutrient mix, without supplementation (Thermo Fisher Scientific, cat. 11765054), 100 U/mL penicillin-streptomycin (Thermo Fisher Scientific, cat. 15140122), and 2.5% Matrigel (Corning Inc., Corning, NY, cat. 354248) for the first three passages. The two PDC lines 997537-175-T-J1-PDC and 415267-285-R-J2-PDC were cultured on uncoated flasks. The 857933-349-R-J2-PDC line was cultured in 6C/Colon 1B media containing advanced DMEM/F-12 (Thermo Fisher Scientific, cat. 12634028), 10 mM HEPES (Thermo Fisher Scientific, cat. 15630080), 1X GlutaMAX supplement (Thermo Fisher Scientific, cat. 35050061), 0.1 mg/mL primocin (InvivoGen, San Diego, CA, cat. ant-pm-2), 10% defined fetal bovine serum, heat inactivated (HyClone Laboratories Inc., Logan, UT, cat. SH30070.03HI), 50% L-WRN conditioned media (ATCC, cat. CRL-3276), 1.25 mM N-Acetyl-L-cysteine (Sigma-Aldrich, cat. A9165), 10 mM nicotinamide (Sigma-Aldrich, cat. N0636), 1X B-27 supplement (Thermo Fisher Scientific, cat. 17504044), 1X N-2 supplement (Thermo Fisher Scientific, cat. […]

[1] = second compound 0.0316 µM, first compound 0.00316 µM
[2] = second compound 0.0316 µM, first compound 0.01 µM
[3] = second compound 0.0316 µM, first compound 0.0316 µM
[4] = second compound 0.0316 µM, first compound 0.1 µM
[5] = second compound 0.1 µM, first compound 0.00316 µM
[6] = second compound 0.1 µM, first compound 0.01 µM
[7] = second compound 0.1 µM, first compound 0.0316 µM
[8] = second compound 0.1 µM, first compound 0.1 µM
[9] = second compound 0.316 µM, first compound 0.00316 µM
[10] = second compound 0.316 µM, first compound 0.01 µM
[11] = second compound 0.316 µM, first compound 0.0316 µM
[12] = second compound 0.316 µM, first compound 0.1 µM
[13] = second compound 1 µM, first compound 0.00316 µM
[14] = second compound 1 µM, first compound 0.01 µM
[15] = second compound 1 µM, first compound 0.0316 µM
[16] = second compound 1 µM, first compound 0.1 µM
[17] = second compound 3.16 µM, first compound 0.00316 µM
[18] = second compound 3.16 µM, first compound 0.01 µM
[19] = second compound 3.16 µM, first compound 0.0316 µM
[20] = second compound 3.16 µM, first compound 0.1 µM
[21] = second compound 10 µM, first compound 0.00316 µM
[22] = second compound 10 µM, first compound 0.01 µM
[23] = second compound 10 µM, first compound 0.0316 µM
[24] = second compound 10 µM, first compound 0.1 µM
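Also: spheroids exposed to compounds for seven days.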
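For viability, T/C in this document: 100% = DMSO vehicle control viability.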

`COc1cccc(OCCCN)c1-c1cc(Nc2cnc(C#N)cn2)n[nH]1` + Nc1ccc(C#CCN(C(=O)Cc2ncc(C(F)(F)F)cc2C(F)(F)F)c2ccc(F)cc2)nn1 gave an IC50 (second compound 0.0316 µM) of 370 nM, an IC50 (second compound 0.1 µM) of 285 nM and an IC50 (second compound 0.316 µM) of 298 nM. For the same compound, the IC50 (second compound 1 µM) was 577 nM, the IC50 (second compound 3.16 µM) was 242 nM and the IC50 (second compound 10 µM) was 212 nM. For the same compound, the viability, T/C [1] was 128%, the viability, T/C [2] was 93.5% and the viability, T/C [3] was 85%. It also gave a viability, T/C [4] of 66.8%, a viability, T/C (second compound 0.0316 µM, first compound 0.316 µM) of 55.3% and a viability, T/C (second compound 0.0316 µM, first compound 1 µM) of 37%. The viability, T/C [5] was 89.7%, the viability, T/C [6] was 97.3% and the viability, T/C [7] was 72.9%. The viability, T/C [8] was 62.4%, the viability, T/C (second compound 0.1 µM, first compound 0.316 µM) was 51.8% and the viability, T/C (second compound 0.1 µM, first compound 1 µM) was 39%. It also gave a viability, T/C [9] of 94.9%, a viability, T/C [10] of 88.3% and a viability, T/C [11] of 73.4%. The viability, T/C [12] was 58.1%, the viability, T/C (second compound 0.316 µM, first compound 0.316 µM) was 53.2% and the viability, T/C (second compound 0.316 µM, first compound 1 µM) was 38%. The viability, T/C [13] was 110%, the viability, T/C [14] was 90.3% and the viability, T/C [15] was 76.4%. It also gave a viability, T/C [16] of 58.4%, a viability, T/C (second compound 1 µM, first compound 0.316 µM) of 53.7% and a viability, T/C (second compound 1 µM, first compound 1 µM) of 47.5%. It also gave a viability, T/C [17] of 97.6%, a viability, T/C [18] of 93.5% and a viability, T/C [19] of 81.3%. For the same compound, the viability, T/C [20] was 74.9%, the viability, T/C (second compound 3.16 µM, first compound 0.316 µM) was 39.7% and the viability, T/C (second compound 3.16 µM, first compound 1 µM) was 35.6%. For the same compound, the viability, T/C [21] was 103%, the viability, T/C [22] was 96.7% and the viability, T/C [23] was 99.9%. It also gave a viability, T/C [24] of 66.7%, a viability, T/C (second compound 10 µM, first compound 0.316 µM) of 43.3% and a viability, T/C (second compound 10 µM, first compound 1 µM) of 36.3%.

Compound `Cn1ncnc1[C@H]1c2n[nH]c(=O)c3cc(F)cc(c23)N[C@@H]1c1ccc(F)cc1` + Nc1ccc(C#CCN(C(=O)Cc2ncc(C(F)(F)F)cc2C(F)(F)F)c2ccc(F)cc2)nn1 has an IC50 (second compound 0.0316 µM) of over 100 nM, an IC50 (second compound 0.1 µM) of over 100 nM and an IC50 (second compound 0.316 µM) of over 100 nM. It also gave an IC50 (second compound 1 µM) of over 100 nM, an IC50 (second compound 3.16 µM) of over 100 nM and an IC50 (second compound 10 µM) of over 100 nM. It also gave a viability, T/C (second compound 0.0316 µM, first compound 0.000316 µM) of 98.9%, a viability, T/C (second compound 0.0316 µM, first compound 0.001 µM) of 94.9% and a viability, T/C [1] of 91.9%. The viability, T/C [2] was 101%, the viability, T/C [3] was 108% and the viability, T/C [4] was 94.3%. It also gave a viability, T/C (second compound 0.1 µM, first compound 0.000316 µM) of 105%, a viability, T/C (second compound 0.1 µM, first compound 0.001 µM) of 108% and a viability, T/C [5] of 84.1%. It also gave a viability, T/C [6] of 97.3%, a viability, T/C [7] of 100% and a viability, T/C [8] of 81.9%. It also gave a viability, T/C (second compound 0.316 µM, first compound 0.000316 µM) of 99%, a viability, T/C (second compound 0.316 µM, first compound 0.001 µM) of 93.7% and a viability, T/C [9] of 108%. The viability, T/C [10] was 93.8%, the viability, T/C [11] was 97.7% and the viability, T/C [12] was 95.2%. The viability, T/C (second compound 1 µM, first compound 0.000316 µM) was 102%, the viability, T/C (second compound 1 µM, first compound 0.001 µM) was 96.8% and the viability, T/C [13] was 94.5%. For the same compound, the viability, T/C [14] was 86.9%, the viability, T/C [15] was 103% and the viability, T/C [16] was 104%. The viability, T/C (second compound 3.16 µM, first compound 0.000316 µM) was 105%, the viability, T/C (second compound 3.16 µM, first compound 0.001 µM) was 100% and the viability, T/C [17] was 100%. The viability, T/C [18] was 110%, the viability, T/C [19] was 113% and the viability, T/C [20] was 93.9%. For the same compound, the viability, T/C (second compound 10 µM, first compound 0.000316 µM) was 122%, the viability, T/C (second compound 10 µM, first compound 0.001 µM) was 119% and the viability, T/C [21] was 121%. For the same compound, the viability, T/C [22] was 119%, the viability, T/C [23] was 111% and the viability, T/C [24] was 127%.
